Patent US20150132328A1 (priority 2011, published 2015)
Like-named read-outs stand apart in the source and are kept apart here.

Legend:
[1] = tested on: rats with rheumatoid arthritis
Source text: This produces that in the third week appears edema of the cephalic and caudal extremities, which can be measured with a vernier. Inflammation is due to the presence of the own autoimmune response against […] of the rat.

thymocytes = tested on: thymocytes
Protocol: For that, we made organ culture in agarose gels and a filter with pores of 5 micron to prevent migration of the thymocytes. The Apoptosis was quantified with 7AAD and it was evaluated by flow cytometry.

## Peptide LEDGPKFL + Zinc [IMMP]
[1]; AR + treatment
  Number of rats showing Inflammation 0%: 3
  Number of rats showing Inflammation 50%: 3
  Number of rats showing Inflammation 100% of palmar and plantar pad: 6
[1]; IMMP alone, no arthritis
  Number of rats showing Inflammation 0%: 0
  Number of rats showing Inflammation 50%: 0
  Number of rats showing Inflammation 100% of palmar and plantar pad: 0
[1]; rat, in vivo
  Animals with inflammation reduced at 50%: 25%
  Animals with inflammation reduced at 100%: 25%
thymocytes; [IMMP] 10^−8
  Thymocytes in apoptosis (%): 1.6 ± 0.8 %
thymocytes; [IMMP] 10^−9
  Thymocytes in apoptosis (%): 1.7 ± 0.7 %
thymocytes; [IMMP] 10^−10
  Thymocytes in apoptosis (%): 1.5 ± 0.09 %
thymocytes; [IMMP] 10^−11
  Thymocytes in apoptosis (%): 2.5 ± 0.91%
